Starred links: 1 amine or outer side, 2 acyl side, 3 side chain; linkers in the order of their positions; H or OH if unused. Non-standard residues stand in square brackets, D forms with d. Residues, ends and D or L forms follow the SMILES beside them. Groups on a side chain read outwards from the residue. *: point of attachment. C18 diacid = O=C(O)CCCCCCCCCCCCCCCCC(=O)*; αMePhe(2-F) = C[C@](N)(Cc1ccccc1F)C(=O)O; γGlu = O=C(O)[C@H](CCC(=O)[*:2])N[*:1]; AEEA = NCCOCCOCC(=O)O; Aib = CC(C)(N)C(=O)O
Experiments:
Format in all cases: cell-based
[1] = biological target: T1, GIPR (Homo sapiens, UniProt P48546); assay: In vitro cell activity, cAMP production in HEK293 cells expressing GIPR; conditions: HEK293-GIPR cells, cAMP; read-out: GIPR (EC50)
T1 construct: expressed in transfected cells; host or cells: HEK293 (HEK293-GIPR)
T1 sequence (P48546 22-466): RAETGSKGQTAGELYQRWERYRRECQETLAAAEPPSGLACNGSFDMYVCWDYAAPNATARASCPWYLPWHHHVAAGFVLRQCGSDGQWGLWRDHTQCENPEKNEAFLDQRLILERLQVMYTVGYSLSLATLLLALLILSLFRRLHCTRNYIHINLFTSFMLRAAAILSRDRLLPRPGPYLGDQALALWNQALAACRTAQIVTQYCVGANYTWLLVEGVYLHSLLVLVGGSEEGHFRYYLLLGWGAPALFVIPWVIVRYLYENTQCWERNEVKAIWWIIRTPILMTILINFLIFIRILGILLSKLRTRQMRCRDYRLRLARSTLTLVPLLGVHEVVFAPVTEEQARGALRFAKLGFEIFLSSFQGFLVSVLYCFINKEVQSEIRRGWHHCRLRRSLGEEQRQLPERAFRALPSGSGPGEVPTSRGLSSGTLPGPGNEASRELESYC
Outline: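 HEK293 cells expressing human GIPR, thawed and diluted to 4×10^5 cells/mL, are stimulated with test compound. cAMP is measured by HTRF competition between cAMP-d2 and anti-cAMP cryptate. EC50 comes from a four-parameter nonlinear fit of signal ratio against concentration.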

[2] = biological target: T2, GCGR (Homo sapiens, UniProt P47871); assay: In vitro cell activity, cAMP production in HEK293 cells expressing GCGR; conditions: HEK293-GCGR cells, cAMP; read-out: GCGR (EC50)
T2 construct: expressed in transfected cells; host or cells: HEK293 (HEK293-GCGR)
Outline: (§1)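 cAMP output read as 665/620 nm HTRF ratio after adding cAMP-d2 plus anti-cAMP cryptate and incubating 1 h at room temperature in the dark or overnight at 4 °C. Cells: HEK293 expressing human GLP-1R or GCGR, plated from a 4×10^5 cells/mL suspension. Four-parameter fit gives EC50.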

[3] = biological target: T3, GLP-1R (Homo sapiens, UniProt P43220); assay: In vitro cell activity, cAMP production in HEK293 cells expressing GLP-1R; conditions: HEK293-GLP-1R cells, cAMP; read-out: GLP-1R (EC50)
T3 construct: expressed in transfected cells; host or cells: HEK293 (HEK293-GLP-1R)
Outline: as §1

T2 sequence (P47871 26-477, species assumed): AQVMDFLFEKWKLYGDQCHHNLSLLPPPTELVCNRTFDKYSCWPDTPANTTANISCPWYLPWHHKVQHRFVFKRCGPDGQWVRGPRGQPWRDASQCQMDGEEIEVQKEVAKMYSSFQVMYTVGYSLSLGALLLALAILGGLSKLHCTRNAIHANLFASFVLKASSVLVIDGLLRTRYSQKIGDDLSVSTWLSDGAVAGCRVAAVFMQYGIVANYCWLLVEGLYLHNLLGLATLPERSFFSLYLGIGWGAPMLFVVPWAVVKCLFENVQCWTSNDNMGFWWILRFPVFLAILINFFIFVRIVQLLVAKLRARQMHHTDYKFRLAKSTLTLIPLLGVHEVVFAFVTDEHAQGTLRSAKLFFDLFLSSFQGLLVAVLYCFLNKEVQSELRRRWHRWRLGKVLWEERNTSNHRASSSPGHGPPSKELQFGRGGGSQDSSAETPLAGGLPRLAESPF
T3 sequence (P43220 24-463, species assumed): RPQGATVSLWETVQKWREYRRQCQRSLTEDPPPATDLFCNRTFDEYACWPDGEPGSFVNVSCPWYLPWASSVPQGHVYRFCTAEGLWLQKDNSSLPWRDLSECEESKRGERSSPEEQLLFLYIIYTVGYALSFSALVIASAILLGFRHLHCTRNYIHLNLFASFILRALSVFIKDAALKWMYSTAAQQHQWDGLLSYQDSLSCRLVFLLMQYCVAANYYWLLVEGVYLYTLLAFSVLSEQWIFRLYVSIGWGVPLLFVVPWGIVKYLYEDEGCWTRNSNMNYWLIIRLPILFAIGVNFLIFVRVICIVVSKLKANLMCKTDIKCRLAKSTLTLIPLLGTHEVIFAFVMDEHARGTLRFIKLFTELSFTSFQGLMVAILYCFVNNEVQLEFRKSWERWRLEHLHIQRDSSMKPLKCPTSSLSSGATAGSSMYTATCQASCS

SMILES	EC50 [1]	EC50 [2]	EC50 [3]
CC[C@H](C)[C@H](NC(=O)[C@H](CO)NC(=O)[C@H](Cc1ccc(O)cc1)NC(=O)[C@H](CC(=O)O)NC(=O)[C@H](CO)NC(=O)[C@@H](NC(=O)[C@](C)(Cc1ccccc1F)NC(=O)[C@@H](NC(=O)CNC(=O)[C@H](Cc1c[nH]cn1)NC(=O)C(C)(C)NC(=O)[C@@H](N)Cc1ccc(O)cc1)[C@@H](C)O)[C@@H](C)O)C(=O)N[C@@H](CC(C)C)C(=O)N[C@@H](CC(C)C)C(=O)N[C@@H](CC(=O)O)C(=O)N[C@@H](CCC(=O)O)C(=O)N[C@@H](CCCCNC(=O)COCCOCCNC(=O)CC[C@H](NC(=O)CCCCCCCCCCCCCCCCC(=O)O)C(=O)O)C(=O)N[C@@H](CCCNC(=N)N)C(=O)N[C@@H](CCC(N)=O)C(=O)NC(C)(C)C(=O)N[C@@H](CCC(=O)O)C(=O)N[C@@H](Cc1ccccc1)C(=O)N[C@H](C(=O)N[C@@H](CCC(=O)O)C(=O)N[C@@H](Cc1c[nH]c2ccccc12)C(=O)N[C@@H](CC(C)C)C(=O)N[C@@H](CC(C)C)C(=O)N[C@@H](C)C(=O)NCC(=O)NCC(=O)N1CCC[C@H]1C(=O)N[C@@H](CO)C(=O)N[C@@H](CO)C(=O)NCC(=O)N[C@@H](C)C(=O)N1CCC[C@H]1C(=O)N1CCC[C@H]1C(=O)N1CCC[C@H]1C(=O)N[C@@H](CO)C(N)=O)[C@@H](C)CC [HEC-PT109]	0.052 nM	0.707 nM	0.14 nM
CC[C@H](C)[C@H](NC(=O)[C@H](CO)NC(=O)[C@H](Cc1ccc(O)cc1)NC(=O)[C@H](CC(=O)O)NC(=O)[C@H](CO)NC(=O)[C@@H](NC(=O)[C@](C)(Cc1ccccc1F)NC(=O)[C@@H](NC(=O)CNC(=O)[C@H](CCC(N)=O)NC(=O)C(C)(C)NC(=O)[C@@H](N)Cc1ccc(O)cc1)[C@@H](C)O)[C@@H](C)O)C(=O)N[C@@H](CC(C)C)C(=O)N[C@@H](CC(C)C)C(=O)N[C@@H](CC(=O)O)C(=O)N[C@@H](CCC(=O)O)C(=O)N[C@@H](CCCCNC(=O)COCCOCCNC(=O)CC[C@H](NC(=O)CCCCCCCCCCCCCCCCC(=O)O)C(=O)O)C(=O)N[C@@H](CCCCN)C(=O)N[C@@H](CCC(N)=O)C(=O)NC(C)(C)C(=O)N[C@@H](CCC(=O)O)C(=O)N[C@@H](Cc1ccccc1)C(=O)N[C@H](C(=O)N[C@@H](CCC(=O)O)C(=O)N[C@@H](Cc1c[nH]c2ccccc12)C(=O)N[C@@H](CC(C)C)C(=O)N[C@@H](CC(C)C)C(=O)N[C@@H](C)C(=O)NCC(=O)NCC(=O)N1CCC[C@H]1C(=O)N[C@@H](CO)C(=O)N[C@@H](CO)C(=O)NCC(=O)N[C@@H](C)C(=O)N1CCC[C@H]1C(=O)N1CCC[C@H]1C(=O)N1CCC[C@H]1C(=O)N[C@@H](CO)C(N)=O)[C@@H](C)CC [HEC-PT129]	0.0439 nM	0.525 nM	0.141 nM
CC[C@H](C)[C@H](NC(=O)[C@H](Cc1ccccc1)NC(=O)[C@H](C)NC(=O)[C@H](CCCNC(=N)N)NC(=O)[C@H](CCC(N)=O)NC(=O)[C@H](CCCNC(=N)N)NC(=O)[C@H](CCCCNC(=O)COCCOCCNC(=O)CC[C@H](NC(=O)CCCCCCCCCCCCCCCCC(=O)O)C(=O)O)NC(=O)[C@H](CCC(=O)O)NC(=O)[C@H](CC(=O)O)NC(=O)[C@H](CC(C)C)NC(=O)[C@H](CC(C)C)NC(=O)[C@@H](NC(=O)[C@H](CO)NC(=O)[C@H](Cc1ccc(O)cc1)NC(=O)[C@H](CC(=O)O)NC(=O)[C@H](CO)NC(=O)[C@@H](NC(=O)[C@](C)(Cc1ccccc1F)NC(=O)[C@@H](NC(=O)CNC(=O)[C@H](CCC(N)=O)NC(=O)C(C)(C)NC(=O)[C@@H](N)Cc1ccc(O)cc1)[C@@H](C)O)[C@@H](C)O)[C@@H](C)CC)C(=O)N[C@@H](CCC(=O)O)C(=O)N[C@@H](Cc1ccc(O)cc1)C(=O)N[C@@H](CC(C)C)C(=O)N[C@@H](CC(C)C)C(=O)N[C@@H](C)C(=O)NCC(=O)NCC(=O)N1CCC[C@H]1C(=O)N[C@@H](CO)C(=O)N[C@@H](CO)C(=O)NCC(=O)N[C@@H](C)C(=O)N1CCC[C@H]1C(=O)N1CCC[C@H]1C(=O)N1CCC[C@H]1C(=O)N[C@@H](CO)C(=O)O [HEC-PT134]	0.207 nM	0.862 nM	0.146 nM
CC[C@H](C)[C@H](NC(=O)[C@H](Cc1ccccc1)NC(=O)[C@H](CCC(=O)O)NC(=O)[C@H](CCCCNC(=O)COCCOCCNC(=O)CC[C@H](NC(=O)CCCCCCCCCCCCCCCCC(=O)O)C(=O)O)NC(=O)[C@H](CCC(N)=O)NC(=O)[C@H](CCCNC(=N)N)NC(=O)[C@@H](NC(=O)[C@H](CCCNC(=N)N)NC(=O)[C@H](CC(=O)O)NC(=O)[C@H](CC(C)C)NC(=O)[C@H](CC(C)C)NC(=O)[C@@H](NC(=O)[C@H](CO)NC(=O)[C@H](Cc1ccc(O)cc1)NC(=O)[C@H](CC(=O)O)NC(=O)[C@H](CO)NC(=O)[C@@H](NC(=O)[C@](C)(Cc1ccccc1F)NC(=O)[C@@H](NC(=O)CNC(=O)[C@H](CCC(N)=O)NC(=O)C(C)(C)NC(=O)[C@@H](N)Cc1ccc(O)cc1)[C@@H](C)O)[C@@H](C)O)[C@@H](C)CC)[C@@H](C)CC)C(=O)N[C@@H](CCC(=O)O)C(=O)N[C@@H](Cc1c[nH]c2ccccc12)C(=O)N[C@@H](CC(C)C)C(=O)N[C@@H](CC(C)C)C(=O)N[C@@H](C)C(=O)NCC(=O)NCC(=O)N1CCC[C@H]1C(=O)N[C@@H](CO)C(=O)N[C@@H](CO)C(=O)NCC(=O)N[C@@H](C)C(=O)N1CCC[C@H]1C(=O)N1CCC[C@H]1C(=O)N1CCC[C@H]1C(=O)N[C@@H](CO)C(=O)O [HEC-PT125] (H-Y[Aib]QGT[αMePhe(2-F)]TSDYSILLDRIRQK([AEEA-γGlu-C18 diacid])EFIEWLLAGGPSSGAPPPS-OH)	0.0217 nM	0.0269 nM	0.123 nM
CC[C@H](C)[C@H](NC(=O)[C@H](Cc1ccccc1)NC(=O)[C@H](CCC(=O)O)NC(=O)[C@H](CCC(N)=O)NC(=O)[C@H](CCC(N)=O)NC(=O)[C@H](CCCNC(=N)N)NC(=O)[C@H](CCCCNC(=O)COCCOCCNC(=O)CC[C@H](NC(=O)CCCCCCCCCCCCCCCCCCC(=O)O)C(=O)O)NC(=O)[C@H](CCCNC(=N)N)NC(=O)[C@H](CC(=O)O)NC(=O)[C@H](CC(C)C)NC(=O)[C@H](CC(C)C)NC(=O)[C@@H](NC(=O)[C@H](CO)NC(=O)[C@H](Cc1ccc(O)cc1)NC(=O)[C@H](CC(=O)O)NC(=O)[C@H](CO)NC(=O)[C@@H](NC(=O)[C@](C)(Cc1ccccc1F)NC(=O)[C@@H](NC(=O)CNC(=O)[C@H](CCC(N)=O)NC(=O)C(C)(C)NC(=O)[C@@H](N)Cc1ccc(O)cc1)[C@@H](C)O)[C@@H](C)O)[C@@H](C)CC)C(=O)N[C@@H](CCC(=O)O)C(=O)N[C@@H](Cc1c[nH]c2ccccc12)C(=O)N[C@@H](CC(C)C)C(=O)N[C@@H](CC(C)C)C(=O)N[C@@H](C)C(=O)NCC(=O)NCC(=O)N1CCC[C@H]1C(=O)N[C@@H](CO)C(=O)N[C@@H](CO)C(=O)NCC(=O)N[C@@H](C)C(=O)N1CCC[C@H]1C(=O)N1CCC[C@H]1C(=O)N1CCC[C@H]1C(=O)N[C@@H](CO)C(=O)O [HEC-PT127]	0.0465 nM	0.0707 nM	0.127 nM
CC[C@H](C)[C@H](NC(=O)[C@H](CCCNC(=N)N)NC(=O)[C@H](CC(=O)O)NC(=O)[C@H](CCCCNC(=O)COCCOCCNC(=O)CC[C@H](NC(=O)CCCCCCCCCCCCCCCCC(=O)O)C(=O)O)NC(=O)[C@H](CC(C)C)NC(=O)[C@@H](NC(=O)[C@H](CO)NC(=O)[C@H](Cc1ccc(O)cc1)NC(=O)[C@H](CC(=O)O)NC(=O)[C@H](CO)NC(=O)[C@@H](NC(=O)[C@](C)(Cc1ccccc1F)NC(=O)[C@@H](NC(=O)CNC(=O)[C@H](CCC(N)=O)NC(=O)C(C)(C)NC(=O)[C@@H](N)Cc1ccc(O)cc1)[C@@H](C)O)[C@@H](C)O)[C@@H](C)CC)C(=O)N[C@@H](C)C(=O)N[C@@H](CCC(N)=O)C(=O)N[C@@H](CCCNC(=N)N)C(=O)N[C@@H](C)C(=O)N[C@@H](Cc1ccccc1)C(=O)N[C@H](C(=O)N[C@@H](CCC(=O)O)C(=O)N[C@@H](Cc1ccc(O)cc1)C(=O)N[C@@H](CC(C)C)C(=O)N[C@@H](CC(C)C)C(=O)N[C@@H](CCC(=O)O)C(=O)NCC(=O)NCC(=O)N1CCC[C@H]1C(=O)N[C@@H](CO)C(=O)N[C@@H](CO)C(=O)NCC(=O)N[C@@H](C)C(=O)N1CCC[C@H]1C(=O)N1CCC[C@H]1C(=O)N1CCC[C@H]1C(=O)N[C@@H](CO)C(=O)O)[C@@H](C)CC [HEC-PT142] (H-Y[Aib]QGT[αMePhe(2-F)]TSDYSILK([AEEA-γGlu-C18 diacid])DRIAQRAFIEYLLEGGPSSGAPPPS-OH)	0.142 nM	0.113 nM	0.16 nM

Reference: EP4596574A1, “GLP-1/GCG/GIP TRIPLE-RECEPTOR AGONIST AND USE THEREOF” (Sunshine Lake Pharma Co., Ltd., priority 2022, dated 2024)
